Assay results from ChEMBL document CHEMBL4190401, “Lung cancer and matrix metalloproteinases inhibitors of polyphenols from Selaginella tamariscina with suppression activity of migration” (Bioorg Med Chem Lett, 2018).
Calls of active or inactive are those of the source. The calls are words filed in the database; no cut-off is given here.

Assays:
[1] = tested on: A549; test: Cytotoxicity against human A549 cells assessed as reduction in cell viability after 48 hrs by MTT assay; assay type: functional, cell-based; settings: A549, 48 h
[2] = tested on: HepG2; test: Cytotoxicity against human HepG2 cells assessed as reduction in cell viability after 48 hrs by MTT assay; assay type: functional, cell-based; settings: HepG2, 48 h
[3] = tested on: T-24; test: Cytotoxicity against human T24 cells assessed as reduction in cell viability after 48 hrs by MTT assay; assay type: functional, cell-based; settings: T-24, 48 h
[4] = tested on: MGC-803; test: Cytotoxicity against human MGC803 cells assessed as reduction in cell viability after 48 hrs by MTT assay; assay type: functional, cell-based; settings: MGC-803, 48 h
[5] = molecular target: Stromelysin-1 (Homo sapiens, UniProt P08254); test: Inhibition of recombinant human MMP3 preincubated for 30 mins followed by McaPro-Leu-Gly-Leu-Dpa-Ala-Arg-NH2 substrate addition measured by fluorescence assay
[6] = molecular target: 72 kDa type IV collagenase (Homo sapiens, UniProt P08253); test: Inhibition of recombinant human MMP2 preincubated for 30 mins followed by McaPro-Leu-Gly-Leu-Dpa-Ala-Arg-NH2 substrate addition measured by fluorescence assay
[7] = molecular target: T1, Matrix metalloproteinase-9 (Homo sapiens, UniProt P14780); test: Inhibition of recombinant human MMP9 preincubated for 30 mins followed by McaPro-Leu-Gly-Leu-Dpa-Ala-Arg-NH2 substrate addition measured by fluorescence assay
[8] = tested on: A549; test: Induction of apoptosis in human A549 cells after 24 hrs by Annexin V-FITC/propidium iodide staining based flow cytometry; assay type: functional, cell-based
[9] = tested on: A549; test: Induction of apoptosis in human A549 cells assessed as live cells at 10 uM after 24 hrs by Annexin V-FITC/propidium iodide staining based flow cytometry (reference value: 91.9%); assay type: functional
[10] = tested on: A549; test: Induction of apoptosis in human A549 cells assessed as early apoptotic cells at 10 uM after 24 hrs by Annexin V-FITC/propidium iodide staining based flow cytometry (reference value: 1.2%); assay type: functional
[11] = tested on: A549; test: Induction of apoptosis in human A549 cells at 10 to 40 uM after 24 hrs by acridine orange/ethidium bromide double staining based fluorescence microscopic method; assay type: functional, cell-based
[12] = tested on: A549; test: Induction of apoptosis in human A549 cells assessed as late apoptotic cells at 40 uM after 24 hrs by Annexin V-FITC/propidium iodide staining based flow cytometry (reference value: 2.8%); assay type: functional
[13] = tested on: A549; test: Induction of apoptosis in human A549 cells assessed as late apoptotic cells at 20 uM after 24 hrs by Annexin V-FITC/propidium iodide staining based flow cytometry (reference value: 2.8%); assay type: functional
[14] = tested on: A549; test: Antimigratory activity against human A549 cells assessed as inhibition of wound healing at 10 to 20 uM after 24 hrs by phase contrast microscopic method; assay type: functional, cell-based
[15] = molecular target: T1, Matrix metalloproteinase-9; test: Binding affinity to MMP9 (unknown origin) by SPR assay
[16] = tested on: A549; test: Induction of apoptosis in human A549 cells assessed as increase in caspase-3 level after 24 hrs by Western blot method; assay type: functional, cell-based
[17] = tested on: A549; test: Induction of apoptosis in human A549 cells assessed as live cells at 20 uM after 24 hrs by Annexin V-FITC/propidium iodide staining based flow cytometry (reference value: 91.9%); assay type: functional
[18] = tested on: A549; test: Induction of apoptosis in human A549 cells assessed as decrease in Bcl-2 level at 10 to 40 uM after 24 hrs by Western blot method; assay type: functional, cell-based
[19] = tested on: A549; test: Induction of apoptosis in human A549 cells assessed as increase in Bax level after 24 hrs by Western blot method; assay type: functional, cell-based
[20] = tested on: A549; test: Induction of apoptosis in human A549 cells assessed as live cells at 40 uM after 24 hrs by Annexin V-FITC/propidium iodide staining based flow cytometry (reference value: 91.9%); assay type: functional
[21] = tested on: A549; test: Induction of apoptosis in human A549 cells assessed as late apoptotic cells at 10 uM after 24 hrs by Annexin V-FITC/propidium iodide staining based flow cytometry (reference value: 2.8%); assay type: functional
[22] = tested on: A549; test: Induction of apoptosis in human A549 cells assessed as early apoptotic cells at 20 uM after 24 hrs by Annexin V-FITC/propidium iodide staining based flow cytometry (reference value: 1.2%); assay type: functional
[23] = tested on: A549; test: Induction of apoptosis in human A549 cells assessed as increase in caspase-9 level at 10 to 40 uM after 24 hrs by Western blot method; assay type: functional, cell-based
[24] = tested on: A549; test: Induction of apoptosis in human A549 cells assessed as early apoptotic cells at 40 uM after 24 hrs by Annexin V-FITC/propidium iodide staining based flow cytometry (reference value: 1.2%); assay type: functional

T1 sequence (P14780 whole entry): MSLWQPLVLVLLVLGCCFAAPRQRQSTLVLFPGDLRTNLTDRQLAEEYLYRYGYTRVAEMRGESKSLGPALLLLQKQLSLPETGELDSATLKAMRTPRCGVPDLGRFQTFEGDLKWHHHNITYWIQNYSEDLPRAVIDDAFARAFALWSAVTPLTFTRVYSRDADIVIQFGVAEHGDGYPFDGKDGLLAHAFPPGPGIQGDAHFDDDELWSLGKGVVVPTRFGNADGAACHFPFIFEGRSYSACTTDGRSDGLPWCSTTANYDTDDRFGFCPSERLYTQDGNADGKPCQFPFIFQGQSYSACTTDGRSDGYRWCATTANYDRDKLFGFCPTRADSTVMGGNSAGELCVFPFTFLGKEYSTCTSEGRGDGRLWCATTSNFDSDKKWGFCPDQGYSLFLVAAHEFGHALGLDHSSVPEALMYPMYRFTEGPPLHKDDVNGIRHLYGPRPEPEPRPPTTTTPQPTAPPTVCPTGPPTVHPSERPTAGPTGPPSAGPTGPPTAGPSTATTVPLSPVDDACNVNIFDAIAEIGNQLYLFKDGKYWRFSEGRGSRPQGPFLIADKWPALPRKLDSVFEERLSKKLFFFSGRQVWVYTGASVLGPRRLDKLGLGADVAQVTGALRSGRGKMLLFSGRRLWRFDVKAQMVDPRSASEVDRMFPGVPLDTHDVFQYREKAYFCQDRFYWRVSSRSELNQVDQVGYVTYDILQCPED
Sequence of 72 kDa type IV collagenase (P08253 whole entry): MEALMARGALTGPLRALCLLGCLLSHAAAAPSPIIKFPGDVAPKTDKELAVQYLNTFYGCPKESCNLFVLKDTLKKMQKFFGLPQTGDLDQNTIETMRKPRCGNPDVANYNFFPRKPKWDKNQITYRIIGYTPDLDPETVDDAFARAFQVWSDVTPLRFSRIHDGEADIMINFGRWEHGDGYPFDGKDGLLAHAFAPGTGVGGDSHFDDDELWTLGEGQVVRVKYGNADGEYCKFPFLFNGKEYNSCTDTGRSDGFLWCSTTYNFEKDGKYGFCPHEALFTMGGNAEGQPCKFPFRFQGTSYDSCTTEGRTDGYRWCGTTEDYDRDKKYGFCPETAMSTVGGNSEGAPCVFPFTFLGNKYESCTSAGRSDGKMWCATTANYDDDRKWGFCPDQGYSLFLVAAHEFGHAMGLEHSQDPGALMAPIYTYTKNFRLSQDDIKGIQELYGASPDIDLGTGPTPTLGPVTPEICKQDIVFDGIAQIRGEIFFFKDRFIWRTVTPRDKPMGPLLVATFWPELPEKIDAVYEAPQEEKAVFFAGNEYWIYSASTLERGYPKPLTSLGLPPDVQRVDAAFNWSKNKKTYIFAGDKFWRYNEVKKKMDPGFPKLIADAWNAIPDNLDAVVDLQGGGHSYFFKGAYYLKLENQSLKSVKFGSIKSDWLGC
Sequence of Stromelysin-1 (P08254 whole entry): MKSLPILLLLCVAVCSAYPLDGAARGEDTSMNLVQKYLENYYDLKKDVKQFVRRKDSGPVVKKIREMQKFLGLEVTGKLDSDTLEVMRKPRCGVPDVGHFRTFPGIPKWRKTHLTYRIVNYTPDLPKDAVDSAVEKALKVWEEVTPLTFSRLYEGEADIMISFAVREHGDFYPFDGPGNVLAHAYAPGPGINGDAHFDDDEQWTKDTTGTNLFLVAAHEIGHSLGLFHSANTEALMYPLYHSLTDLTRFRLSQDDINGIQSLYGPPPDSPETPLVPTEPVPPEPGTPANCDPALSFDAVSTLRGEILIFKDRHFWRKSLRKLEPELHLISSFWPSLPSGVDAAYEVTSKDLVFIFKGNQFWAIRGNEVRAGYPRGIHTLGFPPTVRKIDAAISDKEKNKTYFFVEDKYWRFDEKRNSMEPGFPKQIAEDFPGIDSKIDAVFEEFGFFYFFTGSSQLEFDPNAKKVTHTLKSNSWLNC

Row | Compound | IC50 [1] | IC50 [2] | IC50 [3] | IC50 [4] | IC50 ([5]; read-out: IC50) | IC50 [6] | IC50 [7] | further results
1 | CC[C@@]1(O)C(=O)OCc2c1cc1n(c2=O)Cc2cc3cc(O)ccc3nc2-1 [HYDROXYCAMPTOTHECIN] | 1.75 µM | 3.19 µM | 11.8 µM | 6.55 µM | – | – | – | –
2 | O=C1OC(c2ccc(O)cc2)(c2ccc(O)cc2)c2c(-c3ccc(O)cc3)ccc(CO)c21 | 11 µM | 15.4 µM | 12.7 µM | 13.8 µM | 87.8 µM | 53.7 µM | 18.3 µM | –
3 | COc1ccc(C2CC(=O)c3c(O)cc(O)cc3O2)cc1-c1c(O)cc2c(c1O)C(=O)CC(c1ccc(O)cc1)O2 (stereo not given) | 27.7 µM | 28.2 µM | 27.4 µM | 26 µM | – | 35.7 µM | 25.4 µM | IC50 [5]: Not Active
4 | O=C(O)c1c(-c2ccc(O)cc2)ccc(CO)c1C#Cc1ccc(O)cc1 | 34.1 µM | 30.2 µM | 37.1 µM | 32.6 µM | 82.6 µM | 85.3 µM | 41 µM | –
5 | COc1ccc(C2CC(=O)c3c(O)cc(O)cc3O2)cc1-c1c(O)cc(O)c2c(=O)cc(-c3ccc(O)cc3)oc12 (stereo not given) | 31.2 µM | 35 µM | 34.9 µM | 36.5 µM | 74.3 µM | 45.8 µM | 29.3 µM | –
6 | COc1ccc(-c2cc(=O)c3c(O)cc(O)cc3o2)cc1-c1c(O)cc2c(c1O)C(=O)CC(c1ccc(O)cc1)O2 (stereo not given) | > 50 µM | > 50 µM | > 50 µM | > 50 µM | – | > 100 µM | 37.4 µM | IC50 [5]: Not Active
7 | O=C(/C=C(\c1ccccc1)c1c(-c2ccc(O)cc2)cccc1-c1ccc(O)cc1)c1ccc(O)cc1 | > 50 µM | > 50 µM | > 50 µM | > 50 µM | > 100 µM | > 100 µM | 24.7 µM | –
8 | COc1ccc(-c2cc(=O)c3c(O)cc(O)cc3o2)cc1-c1c(O)cc(O)c2c(=O)cc(-c3ccc(O)cc3)oc12 [BILOBETIN] | > 50 µM | > 50 µM | > 50 µM | > 50 µM | > 100 µM | > 100 µM | 10.3 µM | –
9 | O=C1OCc2ccc(-c3ccc(O)cc3)c(C(=O)c3ccc(O)cc3)c21 | 21.9 µM | 24.8 µM | 23.4 µM | 26.4 µM | 40.9 µM | 81.2 µM | 36 µM | –
10 | O=C(c1ccc(O)cc1)c1cc(-c2ccc(O)cc2)c(-c2ccc(O)cc2)c(-c2ccc(O)cc2)c1 | > 50 µM | > 50 µM | > 50 µM | > 50 µM | 66.1 µM | 54.2 µM | > 100 µM | –
11 | O=c1cc(-c2ccc(O)c(-c3c(O)cc4oc(-c5ccc(O)cc5)cc(=O)c4c3O)c2)oc2cc(O)cc(O)c12 [ROBUSTAFLAVONE] | 21.4 µM | 19.2 µM | 21.1 µM | 15.6 µM | – | 10.2 µM | 11.8 µM | IC50 [5]: Not Active
12 | COc1ccc(-c2cc(=O)c3c(O)cc(O)cc3o2)cc1-c1c(O)cc2oc(-c3ccc(O)cc3)cc(=O)c2c1O | 25.6 µM | 26.6 µM | 25.8 µM | 21.8 µM | 37.3 µM | > 100 µM | 26.1 µM | –
13 | O=c1cc(-c2ccc(O)c(-c3c(O)cc(O)c4c(=O)cc(-c5ccc(O)cc5)oc34)c2)oc2cc(O)cc(O)c12 [AMENTOFLAVONE] | 8.36 µM | 9.13 µM | 10.7 µM | 9.86 µM | > 100 µM | 30.3 µM | 2.58 µM | Activity [8]: Dose-dependent effect; Activity [9]: 86%; Activity [10]: 2.5%; Activity [11]: Active; Activity [12]: 34.3%; Activity [13]: 28.3%; Activity [14]: Active; Kd [15]: 2.18 µM; Activity [16]: Dose-dependent effect; Activity [17]: 59%; Activity [18]: Active; Activity [19]: Dose-dependent effect; Activity [20]: 57.2%; Activity [21]: 7.9%; Activity [22]: 9.5%; Activity [23]: Active; Activity [24]: 6.4%
